ChEMBL document CHEMBL1201862, “PubChem BioAssay data set” (2004)
Calls of active or inactive are those of the source.

Tests used:
[1] = target: Delta-type opioid receptor (Homo sapiens, UniProt P41143); experiment: Counterscreen for agonists of heterodimerization of the mu 1 (OPRM1) and delta 1 (OPRD1) opioid receptors: Luminescence-based cell-based high throughput dose response assay to identify agonists of OPRD1 homodimerization. [Related pubchem assays (depositor defined):AID504326, AID504355, AID504692, AID504904, AID504905]; type: functional
Delta-type opioid receptor, sequence (P41143 whole entry): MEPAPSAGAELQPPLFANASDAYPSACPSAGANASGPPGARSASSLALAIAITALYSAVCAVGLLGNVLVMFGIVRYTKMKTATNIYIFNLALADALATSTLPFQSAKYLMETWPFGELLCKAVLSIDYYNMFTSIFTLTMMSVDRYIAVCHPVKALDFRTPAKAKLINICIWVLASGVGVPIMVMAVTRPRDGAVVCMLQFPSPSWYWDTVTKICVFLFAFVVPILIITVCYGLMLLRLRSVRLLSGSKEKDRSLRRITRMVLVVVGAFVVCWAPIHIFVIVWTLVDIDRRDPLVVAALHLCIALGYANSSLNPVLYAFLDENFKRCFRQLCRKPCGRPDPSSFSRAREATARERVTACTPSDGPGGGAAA

[2] = target: Mu-type opioid receptor (Homo sapiens, UniProt P35372); experiment: Counterscreen for agonists of heterodimerization of the mu 1 (OPRM1) and delta 1 (OPRD1) opioid receptors: Luminescence-based cell-based high throughput dose response assay to identify agonists of OPRM1 homodimerization.; type: functional;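 also: U2OS cells expressing OPRM1 and beta-arrestin as split beta-galactosidase partners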
Mu-type opioid receptor, sequence (P35372 whole entry): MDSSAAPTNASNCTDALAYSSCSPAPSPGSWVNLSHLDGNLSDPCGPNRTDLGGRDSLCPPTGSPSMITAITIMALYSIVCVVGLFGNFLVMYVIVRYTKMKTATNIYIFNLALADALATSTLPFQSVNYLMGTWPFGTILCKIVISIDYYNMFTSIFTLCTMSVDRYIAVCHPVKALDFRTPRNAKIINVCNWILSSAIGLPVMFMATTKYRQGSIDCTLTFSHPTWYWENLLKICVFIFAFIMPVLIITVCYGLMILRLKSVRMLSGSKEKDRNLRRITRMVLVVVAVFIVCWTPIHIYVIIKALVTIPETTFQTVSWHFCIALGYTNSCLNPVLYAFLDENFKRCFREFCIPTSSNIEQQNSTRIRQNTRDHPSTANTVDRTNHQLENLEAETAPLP

[3] = target: 5-hydroxytryptamine receptor 5A (Homo sapiens, UniProt P47898); experiment: Counterscreen for agonists of OPRM1-OPRD1 heterodimerization: luminescence-based cell-based high throughput dose response assay to identify agonists of 5-hydroxytryptamine (serotonin) 5A receptor (HTR5A). [Related pubchem assays (depositor defined):AID504326, AID504355, AID504692, AID504904, AID504905]; type: functional
5-hydroxytryptamine receptor 5A, sequence (P47898 whole entry): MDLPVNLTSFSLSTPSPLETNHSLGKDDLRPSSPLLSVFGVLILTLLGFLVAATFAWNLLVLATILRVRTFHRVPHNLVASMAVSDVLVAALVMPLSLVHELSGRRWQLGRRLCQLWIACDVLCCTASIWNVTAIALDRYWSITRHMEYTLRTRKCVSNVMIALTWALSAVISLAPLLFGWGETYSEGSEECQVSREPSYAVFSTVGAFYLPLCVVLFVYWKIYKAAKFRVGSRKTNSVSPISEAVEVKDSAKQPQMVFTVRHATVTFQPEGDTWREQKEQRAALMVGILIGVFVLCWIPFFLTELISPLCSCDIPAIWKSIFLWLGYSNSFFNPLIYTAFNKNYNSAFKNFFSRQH

[4] = insulin promoter down-regulators in MIN6 cells, imaging, high-content screening, mouse beta cells (AID 1628); type: functional
[5] = cytotoxicity in MIN6 insulinoma cells, dose response, cytotoxicity control, cell-based, mouse insulinoma (AID 2122); type: functional;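 also: confirmatory high-throughput counterscreen run to flag cytotoxic compounds; mouse MIN-6 beta cells carrying an insulin promoter eGFP reporter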
[6] = Shn3 3'UTR reporter inhibitors, dose response, cell-based, Clone20 osteoblasts, firefly luciferase, cherry-picked (AID 624132); type: functional;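 also: firefly luciferase luminescence from reporter carrying the Shn3 3'UTR in osteoblasts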
[7] = HepG2 cell cytotoxicity, dose response, cytotoxicity control for Shn3 inhibitor project, CellTiter-Glo, cherry-picked (AID 624134); type: functional, cell-based
[8] = control 3'UTR Renilla luciferase suppression, dose response, counter-screen for Shn3 inhibitor project, cell-based, Clone20-Shn3RL, cherry-picked (AID 624133); type: functional
[9] = target: Protein Wnt-3a (Mus musculus, UniProt P27467); experiment: Wnt3a-driven reporter signaling inhibition, dose response, selectivity assay for Gli-SUFU antagonist project, Wnt-LIGHT cells, luminescence (AID 651570); type: functional; details: read-out: IC50_Mean;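 also: Wnt-LIGHT reporter cells stimulated with conditioned medium from Wnt3a-producing cells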
Protein Wnt-3a, sequence (P27467 whole entry): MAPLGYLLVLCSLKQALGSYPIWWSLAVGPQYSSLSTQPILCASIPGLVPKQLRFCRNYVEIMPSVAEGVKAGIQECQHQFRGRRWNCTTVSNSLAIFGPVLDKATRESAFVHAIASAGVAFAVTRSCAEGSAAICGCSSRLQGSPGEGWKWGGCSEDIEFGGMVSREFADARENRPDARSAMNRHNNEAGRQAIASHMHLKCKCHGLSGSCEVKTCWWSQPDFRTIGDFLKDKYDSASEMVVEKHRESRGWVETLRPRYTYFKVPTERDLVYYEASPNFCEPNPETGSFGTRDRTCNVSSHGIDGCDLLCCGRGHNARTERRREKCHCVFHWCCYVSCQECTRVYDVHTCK

[10] = target: T1, Tyrosine-protein phosphatase non-receptor type 7 (Homo sapiens, UniProt P35236); type: functional
T1 sequence (P35236 whole entry): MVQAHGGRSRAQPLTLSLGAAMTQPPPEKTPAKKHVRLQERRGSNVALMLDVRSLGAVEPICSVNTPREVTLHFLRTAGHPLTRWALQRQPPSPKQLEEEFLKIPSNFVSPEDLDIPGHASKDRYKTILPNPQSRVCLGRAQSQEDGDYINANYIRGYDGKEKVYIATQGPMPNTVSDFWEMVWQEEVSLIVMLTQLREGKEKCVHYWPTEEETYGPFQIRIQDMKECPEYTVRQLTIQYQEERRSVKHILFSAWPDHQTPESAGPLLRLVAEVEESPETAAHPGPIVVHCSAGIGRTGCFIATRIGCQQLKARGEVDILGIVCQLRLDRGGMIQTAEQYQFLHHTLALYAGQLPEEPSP

[11] = target: T2, Tyrosine-protein phosphatase non-receptor type 22 (Homo sapiens, UniProt Q9Y2R2); type: functional
T2 sequence (Q9Y2R2 whole entry): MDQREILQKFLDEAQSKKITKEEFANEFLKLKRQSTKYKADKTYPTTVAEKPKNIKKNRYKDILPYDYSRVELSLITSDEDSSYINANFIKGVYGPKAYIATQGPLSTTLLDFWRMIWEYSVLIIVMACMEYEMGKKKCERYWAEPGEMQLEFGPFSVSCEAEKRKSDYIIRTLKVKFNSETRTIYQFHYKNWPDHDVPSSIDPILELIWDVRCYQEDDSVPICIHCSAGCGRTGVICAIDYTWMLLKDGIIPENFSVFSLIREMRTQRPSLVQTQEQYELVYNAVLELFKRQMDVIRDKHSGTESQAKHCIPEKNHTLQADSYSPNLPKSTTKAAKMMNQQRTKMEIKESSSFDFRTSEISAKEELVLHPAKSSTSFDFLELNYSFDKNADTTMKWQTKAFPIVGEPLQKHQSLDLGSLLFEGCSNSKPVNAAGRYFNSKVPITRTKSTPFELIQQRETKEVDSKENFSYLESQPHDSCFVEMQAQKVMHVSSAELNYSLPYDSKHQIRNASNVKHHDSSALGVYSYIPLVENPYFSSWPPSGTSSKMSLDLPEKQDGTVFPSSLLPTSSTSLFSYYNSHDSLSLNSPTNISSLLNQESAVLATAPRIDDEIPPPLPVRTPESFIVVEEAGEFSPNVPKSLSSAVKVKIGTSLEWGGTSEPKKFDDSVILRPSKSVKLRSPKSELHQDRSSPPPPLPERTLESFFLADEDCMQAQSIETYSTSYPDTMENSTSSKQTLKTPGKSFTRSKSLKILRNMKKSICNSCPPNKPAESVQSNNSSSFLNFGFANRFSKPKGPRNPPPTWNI

[12] = target: T2, Tyrosine-protein phosphatase non-receptor type 22; type: functional; remark: listed apart in the source
[13] = target: Cytochrome P450 2D6 (Homo sapiens, UniProt P10635);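 also: CYP2D6 member of a cytochrome P450 panel assay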
Cytochrome P450 2D6, sequence (P10635 whole entry): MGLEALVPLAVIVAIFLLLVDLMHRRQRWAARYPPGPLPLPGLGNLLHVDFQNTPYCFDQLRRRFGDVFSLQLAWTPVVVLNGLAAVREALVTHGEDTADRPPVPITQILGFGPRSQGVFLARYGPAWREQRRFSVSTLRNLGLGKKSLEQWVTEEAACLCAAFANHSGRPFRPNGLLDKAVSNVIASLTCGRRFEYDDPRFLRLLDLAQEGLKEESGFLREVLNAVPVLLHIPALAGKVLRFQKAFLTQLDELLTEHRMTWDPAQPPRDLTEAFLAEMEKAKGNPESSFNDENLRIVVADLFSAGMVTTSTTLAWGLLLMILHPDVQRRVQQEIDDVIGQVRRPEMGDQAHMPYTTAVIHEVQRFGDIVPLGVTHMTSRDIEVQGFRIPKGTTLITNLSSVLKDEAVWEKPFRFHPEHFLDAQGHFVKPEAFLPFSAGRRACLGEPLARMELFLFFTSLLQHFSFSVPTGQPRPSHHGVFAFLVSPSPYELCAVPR

[14] = Luminescence Cell-Based Dose Response HTS to Identify Activators of Luciferase Translation or Activity in H4 […] Cells. [Related pubchem assays: 1829 (Project Summary), 1814 (Primary HTS)]; type: functional
[15] = system: H4; experiment: Luminescence Cell-Based Dose Response HTS to Identify Activators of 5'UTR Stem-Loop Driven Prion Protein mRNA Translation in H4 Neuroglioblastoma Cells. [Related pubchem assays: 1829 (Project Summary), 1814 (Primary HTS)]; type: functional; details: Homo sapiens
[16] = Luminescence Cell-Based Dose Retest to Confirm Inhibitors of Cancer Stem Cells. [Related pubchem assays (depositor defined):AID2717, AID2721]; type: functional; details: Homo sapiens
[17] = cytotoxicity in HMLE control line with eGFP shRNA, dose response, counter-screen for HMLE_sh_ECad selective toxicity project, cell-based, HMLE_sh_eGFP, luminescence (AID 463074); type: functional, Homo sapiens;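 also: HMLE human mammary epithelial cells expressing control shRNA against eGFP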
[18] = HepG2 cell cytotoxicity, dose response, cytotoxicity control, ATP luminescence, cherry-pick, activator set 2 (AID 1053143); type: functional, cell-based
[19] = system: CHO-K1; experiment: (§1) Counterscreen for antagonists of the orexin 1 receptor (OX1R; HCRTR1): Homogeneous time resolved fluorescence (HTRF)-based cell-based dose response assay to identify antagonists of the parental CHO-K1 cell line. [Related pubchem assays (depositor defined):AID434989, AID435008, AID463079, AID485270, AID492963, AID492964, AID492965, AID493232, AID504699, AID504701]; type: functional; details: Cricetulus griseus
[20] = as §1, with “Fluorescence-based” for “Homogeneous time resolved fluorescence (HTRF)-based”, “cell-based high throughput” for “cell-based”, “CHO” for “CHO-K1”; type: functional
[21] = target: T3, Orexin/Hypocretin receptor type 1 (Homo sapiens, UniProt O43613); experiment: Homogeneous Time Resolved Fluorescence (HTRF)-based cell-based high throughput dose response assay for antagonists of the orexin 1 receptor (OX1R; HCRTR1). [Related pubchem assays (depositor defined):AID434989, AID435008, AID463079, AID485270, AID492963, AID492964, AID492965, AID493232, AID504717, AID504718]; type: functional
T3 sequence (O43613 whole entry): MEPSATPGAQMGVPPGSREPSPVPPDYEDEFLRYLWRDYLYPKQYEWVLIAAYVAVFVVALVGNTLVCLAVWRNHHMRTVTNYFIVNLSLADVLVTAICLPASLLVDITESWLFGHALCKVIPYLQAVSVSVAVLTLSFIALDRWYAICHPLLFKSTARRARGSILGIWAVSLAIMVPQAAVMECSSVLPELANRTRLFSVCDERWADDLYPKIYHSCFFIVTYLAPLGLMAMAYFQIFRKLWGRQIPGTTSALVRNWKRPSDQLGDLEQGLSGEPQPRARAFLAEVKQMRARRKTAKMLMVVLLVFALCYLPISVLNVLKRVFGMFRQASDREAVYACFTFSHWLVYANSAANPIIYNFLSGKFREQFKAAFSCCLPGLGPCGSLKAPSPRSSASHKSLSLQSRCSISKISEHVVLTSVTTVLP

[22] = target: T3, Orexin/Hypocretin receptor type 1; experiment: Fluorescence-based cell-based high throughput dose response assay for antagonists of the orexin 1 receptor (OX1R; HCRTR1). [Related pubchem assays (depositor defined):AID434989, AID435008, AID463079, AID485270, AID492963, AID492964, AID492965, AID493232, AID504717, AID504718]; type: functional
[23] = target: T4, Alkaline phosphatase, tissue-nonspecific isozyme (Homo sapiens, UniProt P05186)
T4 sequence (P05186 whole entry): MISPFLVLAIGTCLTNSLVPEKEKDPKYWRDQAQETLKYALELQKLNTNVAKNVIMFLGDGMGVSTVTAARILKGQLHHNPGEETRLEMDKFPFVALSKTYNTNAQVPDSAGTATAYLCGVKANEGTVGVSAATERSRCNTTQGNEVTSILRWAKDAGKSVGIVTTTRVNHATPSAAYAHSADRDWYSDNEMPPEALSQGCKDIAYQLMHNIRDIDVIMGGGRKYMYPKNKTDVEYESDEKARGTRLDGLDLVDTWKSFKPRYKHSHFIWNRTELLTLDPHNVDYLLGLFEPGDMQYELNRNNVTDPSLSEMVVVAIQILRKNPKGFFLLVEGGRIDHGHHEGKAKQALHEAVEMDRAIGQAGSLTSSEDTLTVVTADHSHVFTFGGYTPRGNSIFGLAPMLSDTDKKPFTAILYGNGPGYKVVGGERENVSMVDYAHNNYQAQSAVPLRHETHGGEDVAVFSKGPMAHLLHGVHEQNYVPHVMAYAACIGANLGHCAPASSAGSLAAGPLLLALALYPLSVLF

[24] = target: T5, Polyadenylate-binding protein 1 (Homo sapiens, UniProt P11940); experiment: PABP1 MLLE–PAM2 interaction inhibitors, dose response, miRNA deadenylation inhibitor project, biochemical, fluorescence polarization, Cy5-PAM2 peptide, secondary (AID 602260); type: functional; details: read-out: IC50_Mean
T5 sequence (P11940 whole entry): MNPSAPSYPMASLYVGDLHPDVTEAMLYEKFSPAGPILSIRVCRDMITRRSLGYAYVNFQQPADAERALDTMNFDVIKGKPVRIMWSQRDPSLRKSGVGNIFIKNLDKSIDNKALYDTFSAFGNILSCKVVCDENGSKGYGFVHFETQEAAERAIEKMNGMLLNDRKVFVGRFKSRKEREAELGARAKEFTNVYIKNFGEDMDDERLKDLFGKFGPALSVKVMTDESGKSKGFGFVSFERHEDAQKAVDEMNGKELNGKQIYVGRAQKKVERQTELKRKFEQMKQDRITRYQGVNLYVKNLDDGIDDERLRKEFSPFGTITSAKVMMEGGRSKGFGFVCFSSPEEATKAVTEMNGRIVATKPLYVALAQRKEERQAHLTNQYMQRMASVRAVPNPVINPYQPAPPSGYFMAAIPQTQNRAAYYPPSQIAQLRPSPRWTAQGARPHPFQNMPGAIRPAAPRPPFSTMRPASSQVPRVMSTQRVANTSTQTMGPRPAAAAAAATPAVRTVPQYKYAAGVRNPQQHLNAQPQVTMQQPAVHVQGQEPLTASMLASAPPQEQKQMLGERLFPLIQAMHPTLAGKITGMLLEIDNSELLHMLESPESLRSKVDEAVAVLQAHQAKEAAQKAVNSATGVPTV

[25] = target: T5, Polyadenylate-binding protein 1; experiment: PABP1 MLLE–PAM2 binding inhibitor potency, dose response, biochemical, fluorescence polarization, FITC-PAM2 peptide (AID 602259); type: functional; details: read-out: IC50_Mean
[26] = cells; type: functional, cell-based
[27] = cells; type: functional, cell-based; remark: listed apart in the source
[28] = target: Coagulation factor XII (Homo sapiens, UniProt P00748); type: functional;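 also: activated factor XIIa alpha cleaving a fluorogenic AMC peptide substrate; inhibitor potency from loss of enzyme activity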
Coagulation factor XII, sequence (P00748 20-372 limits assumed): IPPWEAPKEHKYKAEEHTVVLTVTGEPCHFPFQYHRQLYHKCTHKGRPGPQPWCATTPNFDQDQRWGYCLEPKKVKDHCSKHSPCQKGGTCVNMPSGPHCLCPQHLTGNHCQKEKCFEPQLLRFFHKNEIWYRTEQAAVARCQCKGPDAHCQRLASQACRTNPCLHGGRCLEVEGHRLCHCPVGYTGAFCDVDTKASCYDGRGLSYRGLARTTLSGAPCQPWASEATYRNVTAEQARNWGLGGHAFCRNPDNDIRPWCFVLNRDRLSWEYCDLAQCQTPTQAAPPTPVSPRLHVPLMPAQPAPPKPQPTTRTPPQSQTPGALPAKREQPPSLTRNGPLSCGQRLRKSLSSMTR
Coagulation factor XII, sequence (P00748 373-615 limits assumed): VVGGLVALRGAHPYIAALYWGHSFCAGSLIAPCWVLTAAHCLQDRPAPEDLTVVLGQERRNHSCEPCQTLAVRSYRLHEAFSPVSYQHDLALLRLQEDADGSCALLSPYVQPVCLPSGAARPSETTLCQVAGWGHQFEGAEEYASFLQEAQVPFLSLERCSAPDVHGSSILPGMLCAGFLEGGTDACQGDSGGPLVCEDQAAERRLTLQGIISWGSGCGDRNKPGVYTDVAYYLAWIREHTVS

[29] = target: FAD-linked sulfhydryl oxidase ALR (Homo sapiens, UniProt P55789); experiment: inhibitors of human ALR sulfhydryl oxidase, dose response, biochemical, H2O2 detection, luminescence, cherry-pick (AID 493248)
FAD-linked sulfhydryl oxidase ALR, sequence (P55789 whole entry): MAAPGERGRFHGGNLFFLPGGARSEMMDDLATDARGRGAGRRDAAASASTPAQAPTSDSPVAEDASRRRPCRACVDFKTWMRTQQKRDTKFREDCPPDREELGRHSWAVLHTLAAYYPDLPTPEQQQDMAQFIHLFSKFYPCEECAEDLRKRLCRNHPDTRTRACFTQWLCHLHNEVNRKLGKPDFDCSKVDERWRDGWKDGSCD

[30] = target: Cytochrome P450 2C19 (Homo sapiens, UniProt P33261); experiment: Cytochrome panel assay with activity outcomes. Panel member name: p450-cyp2c19 Compounds with AC50 equal or less than 10 uM are considered active; type: functional; details: read-out: AC50
Cytochrome P450 2C19, sequence (P33261 whole entry): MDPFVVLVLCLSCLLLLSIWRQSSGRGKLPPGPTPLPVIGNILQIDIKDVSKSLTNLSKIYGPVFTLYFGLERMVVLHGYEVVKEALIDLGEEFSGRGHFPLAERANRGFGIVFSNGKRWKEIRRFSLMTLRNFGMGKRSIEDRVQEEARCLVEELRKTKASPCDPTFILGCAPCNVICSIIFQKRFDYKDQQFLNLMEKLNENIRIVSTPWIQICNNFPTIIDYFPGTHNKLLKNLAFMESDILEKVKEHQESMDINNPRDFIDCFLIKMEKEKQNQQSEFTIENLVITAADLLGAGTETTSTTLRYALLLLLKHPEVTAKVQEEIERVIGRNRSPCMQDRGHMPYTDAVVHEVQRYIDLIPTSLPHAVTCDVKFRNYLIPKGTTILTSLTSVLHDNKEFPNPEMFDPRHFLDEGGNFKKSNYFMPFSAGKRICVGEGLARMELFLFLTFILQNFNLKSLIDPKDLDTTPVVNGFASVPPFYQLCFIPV

[31] = target: Cytochrome P450 2C9 (Homo sapiens, UniProt P11712)
Cytochrome P450 2C9, sequence (P11712 whole entry): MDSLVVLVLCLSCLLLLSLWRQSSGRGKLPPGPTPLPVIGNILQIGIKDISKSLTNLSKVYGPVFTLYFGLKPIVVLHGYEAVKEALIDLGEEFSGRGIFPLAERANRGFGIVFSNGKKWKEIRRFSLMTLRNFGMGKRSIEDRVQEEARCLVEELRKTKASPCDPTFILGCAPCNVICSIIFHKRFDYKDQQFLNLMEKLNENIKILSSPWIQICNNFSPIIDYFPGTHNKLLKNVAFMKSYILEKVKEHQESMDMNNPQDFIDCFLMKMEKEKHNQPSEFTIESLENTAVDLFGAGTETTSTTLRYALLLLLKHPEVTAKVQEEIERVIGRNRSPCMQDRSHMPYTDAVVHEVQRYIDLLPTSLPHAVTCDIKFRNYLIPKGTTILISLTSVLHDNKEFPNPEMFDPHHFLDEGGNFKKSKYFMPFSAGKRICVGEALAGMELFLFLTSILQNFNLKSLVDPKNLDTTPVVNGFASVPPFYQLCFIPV

O=C(NCCc1ccc(Cl)cc1)C1CCC(CNc2nc(=S)[nH]c3ccccc23)CC1 (centres undefined)
EC50 [1]: > 92.5 µM (inactive)
EC50 [2]: > 92.5 µM (inactive)
EC50 [3]: > 92.5 µM (inactive)

CCc1c(C)nc2ncnn2c1N1CCN(S(=O)(=O)c2ccc(OC)cc2)CC1
IC50 [4]: 1.35 µM (active)
IC50 [5]: 0.936 µM (active)
AC50 [6]: 1.16 µM (active)
AC50 [7]: 5.28 µM (active)
AC50 [8]: 3.52 µM (active)
IC50 [9]: 5.74 µM (active)

CCOC(=O)CC1(NC(=O)c2cc(COc3cncc(Cl)c3)on2)CCCCC1
IC50 [10]: > 79.4 µM (inactive)
IC50 [11]: > 79.4 µM (inactive)
IC50 [12]: > 79.4 µM (inactive)

Cc1ccsc1/C=C1/SC(=O)N(CC(=O)N2CCOCC2)C1=O
AC50 [13]: inconclusive

Cc1oc(=O)c(NC(=O)c2cccc(Cl)c2)cc1C(=O)c1ccccc1
EC50 [14]: 6.62 µM (active)
EC50 [15]: 90.8 µM (active)
AC50 [16]: 16.4 µM (active)
AC50 [17]: 21.7 µM (active)
AC50 [18]: 26 µM (active)

C[C@@H]1CN([C@@H](C)CO)C(=O)c2cccc(NC(=O)Nc3ccc(F)cc3)c2O[C@@H]1CN(C)Cc1ccc(Oc2ccccc2)cc1
IC50 [19]: > 66.2 µM (inactive)
IC50 [20]: 23.7 µM (inactive)
IC50 [21]: > 66.2 µM (inactive)
IC50 [22]: 11.2 µM (inactive)

COCCNC(=S)N/N=C(\C)c1ccccc1O
IC50 [4]: 2.44 µM (active)
IC50 [5]: 1.01 µM (active)
EC50 [23]: 70.7 µM (not active)
IC50 [24]: > 66 µM (inactive)
IC50 [25]: > 66 µM (inactive)

Cc1ccc(/C=N\Nc2nc3cc(Cl)ccc3[nH]2)o1
EC50 [26]: > 350 µM (not active)
EC50 [27]: 27.6 µM (active)
IC50 [28]: > 50 µM (inactive)
AC50 [29]: 0.289 µM (active)
AC50 [30]: 28.2 µM (inconclusive)
AC50 [31]: 7.08 µM (inconclusive)

C[N+]1(CCC(=O)c2ccco2)C[C@H]2CC[C@H](CC2)C1 (some centres undefined)
AC50 [13]: inconclusive
